# Assay results taken from patent US8952177B2 (Janssen Pharmaceutica NV, priority 2013, dated 2015).
# Counter-ions that a name gives are not always drawn.
# Key:
# human FLAP = human FLAP (Homo sapiens (Human), UniProt P20292); assay: FLAP binding assay (HTRF format); details: human FLAP-containing Sf-9 membranes, 25 nM HTRF ligand, 2 h; average of runs; read-out: FLAP Binding wild type HTRF Ki
# Protocol: The ability of the compounds of the present invention to treat a FLAP-mediated disease and/or disorder, or associated symptoms or complications thereof, was determined using the following procedures. Binding assay data represent the average value obtained from two different assay plates, with samples run in duplicate on each plate. Human whole blood assay data represent a single replicate on an assay plate using whole blood from at least one healthy donor.
# The assay below is used to test the modulatory activity of compounds against FLAP. Human and mouse FLAP-encoding DNA was amplified by polymerase chain reaction and cloned into pFastBacl (Invitrogen) with a NH2-terminal 6-His tag for expression in Spodoptera frugiperda (Sf-9) cells. FLAP-containing membranes were prepared as was a FITC-labeled FLAP modulator (3-(3-(tert-butylthio)-1-(4-chlorobenzyl)-5-(quinolin-2-ylmethoxy)-1H-indol-2-yl)-2,2-dimethylpropanoic acid). The FLAP binding assay is performed in HTRF format (homogeneous time resolved fluorescence). […] The reaction is allowed to proceed for two hours after which the plate is read on an Envision plate reader in HTRF mode. Data are expressed as a HTRF ratio.
# For human FLAP binding assays, data are analyzed with 3DX Explorer software. […] For analysis, data from multiple runs are averaged and each compound may be tested in 2 to 20 runs. Each run comprises two plates and each plate includes duplicates. Data from each plate is averaged and data are imported into 3DX. The data from multiple runs are aggregated as the average of duplicates of the calculated ratios in order to calculate Ki and IC50 values. Numbers in parentheses are the number of runs for the assay.
# [1] = system: leukotriene pathway in human whole blood (LTB4); assay: Human whole blood assay (LTB4 after calcium ionophore A23187 stimulation); type: cell-based; details: human whole blood diluted 1:1 in RPMI, 15 min pre-incubation, A23187 7 μg/mL for 30 min at 37° Celsius
# Method in brief: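 Heparinised human whole blood, diluted 1:1 in RPMI, was preincubated with compound for 15 min at 37° C. before stimulation with A23187 (7 μg/mL) for 30 min. Plasma LTB4 was measured by immunoassay kit and IC50 obtained by 4-parameter fit; single replicate per plate, blood from at least one donor.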
# human FLAP, sequence (P20292 whole entry): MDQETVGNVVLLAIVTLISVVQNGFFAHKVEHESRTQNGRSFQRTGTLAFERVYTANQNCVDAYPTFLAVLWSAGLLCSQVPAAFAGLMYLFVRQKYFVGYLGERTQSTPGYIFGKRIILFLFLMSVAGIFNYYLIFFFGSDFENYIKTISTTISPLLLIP
Ki (human FLAP) [nM],IC50 ([1]; Homo sapiens) [nM],SMILES,other results
> 10000,–,"Cc1ccc(COc2ccc3nc([C@@H]4CCCC[C@@H]4C(=O)O)n(Cc4ccc(C#N)cc4)c3c2)nc1 (stereo in doubt) [Example 38, (1S*,2R*)-2-{1-(4-Cyanobenzyl)-6-[(5-methylpyridin-2-yl)methoxy]-1H-benzimidazol-2-yl}cyclohexanecarboxylic acid]",–
~490,–,"Cn1ccc(COc2ccc3nc([C@@H]4CCCC[C@@H]4C(=O)O)n(Cc4ccc(C#N)cc4)c3c2)n1 (racemic) [Example 47, racemic cis-2-{1-(4-Cyanobenzyl)-6-[(1-methyl-1H-pyrazol-3-yl)methoxy]-1H-benzimidazol-2-yl}cyclohexanecarboxylic acid as the TFA salt]",–
–,430,"Cc1ccc(Cn2c(C3CCCC[C@H]3C(=O)O)nc3c(F)cc(OCc4ccc(C)cn4)cc32)cc1 (mixture of isomers) [Example 68, racemic cis-2-{4-Fluoro-1-(4-methylbenzyl)-6-[(5-methylpyridin-2-yl)methoxy]-1H-benzimidazol-2-yl}cyclohexanecarboxylic acid as the TFA salt]",–
–,190,"Cc1ccc(COc2cc(F)c3nc([C@@H]4CCCC[C@@H]4C(=O)O)n(Cc4ccc(Br)cc4)c3c2)nc1 (racemic) [Example 59, racemic cis-2-{1-(4-Bromobenzyl)-4-fluoro-6-[(5-methylpyridin-2-yl)methoxy]-1H-benzimidazol-2-yl}cyclohexanecarboxylic acid]",–
–,1970,"Cc1ccc(COc2ccc3nc([C@@H]4CCCC[C@H]4C(=O)O)n(Cc4ccc(OC(F)(F)F)cc4)c3c2)nc1 (racemic) [Example 31, racemic trans-2-{6-[(5-Methylpyridin-2-yl)methoxy]-1-[4-(trifluoromethoxy)benzyl]-1H-benzimidazol-2-yl}cyclohexanecarboxylic acid]",–
–,290,"Cc1ccc(COc2ccc3nc(C4CCCC[C@H]4C(=O)O)n(Cc4ccc(N5CCCCC5)cc4)c3c2)nc1 (mixture of isomers) [Example 156, racemic cis-2-{6-[(5-Methylpyridin-2-yl)methoxy]-1-(4-piperidin-1-ylbenzyl)-1H-benzimidazol-2-yl}cyclohexanecarboxylic acid]",–
–,1750,"Cn1ccc(COc2ccc3nc([C@@H]4CCCC[C@@H]4C(=O)O)n(Cc4ccc(N5CCC(F)(F)CC5)cc4)c3c2)n1 (racemic) [Example 86, racemic cis-2-{1-[4-(4,4-Difluoropiperidin-1-yl)benzyl]-6-[(1-methyl-1H-pyrazol-3-yl)methoxy]-1H-benzimidazol-2-yl}cyclohexanecarboxylic acid]",–
–,400,"Cc1ccc(COc2ccc3nc(C4CCCC[C@H]4C(=O)O)n(Cc4ccc(N5CCCC(F)(F)C5)cc4)c3c2)nc1 (mixture of isomers) [Example 153, racemic cis-2-{1-[4-(3,3-Difluoropiperidin-1-yl)benzyl]-6-[(5-methylpyridin-2-yl)methoxy]-1H-benzimidazol-2-yl}cyclohexanecarboxylic acid]",–
–,400,"Cc1ccc(COc2ccc3nc(C4CCCC[C@H]4C(=O)O)n(Cc4ccc(N5CCC(F)(F)C5)cc4)c3c2)nc1 (mixture of isomers) [Example 152, racemic cis-2-{1-[4-(3,3-Difluoropyrrolidin-1-yl)benzyl]-6-[(5-methylpyridin-2-yl)methoxy]-1H-benzimidazol-2-yl}cyclohexanecarboxylic acid]",–
–,560,"Cc1ccc(COc2ccc3nc([C@H]4CCCC[C@H]4C(=O)O)n(Cc4ccc(OC(F)(F)F)cc4F)c3c2)nc1 (racemic) [Example 26, racemic cis-2-{1-[2-Fluoro-4-(trifluoromethoxy)benzyl]-6-[(5-methylpyridin-2-yl)methoxy]-1H-benzimidazol-2-yl}cyclohexanecarboxylic acid]",–

# Further lines, the molecule ahead of its results:
SMILES,Ki (human FLAP) [nM],IC50 ([1]; Homo sapiens) [nM],other results
"CCC(CC)(Cc1nc2ccc(OCc3ccn(C)n3)cc2n1Cc1ccc(N2CCCCC2)cc1)C(=O)O [Example 43, 2-Ethyl-2-({6-[(1-methyl-1H-pyrazol-3-yl)methoxy]-1-(4-piperidin-1-ylbenzyl)-1H-benzimidazol-2-yl}methyl)butanoic acid]",~940,–,–
"Cc1ccc(COc2cc3c(cc2Cl)nc([C@H]2CCCC[C@H]2C(=O)O)n3Cc2ccc(OC(F)(F)F)cc2F)nc1 (racemic) [Example 110, racemic cis-2-{5-Chloro-1-[2-fluoro-4-(trifluoromethoxy)benzyl]-6-[(5-methylpyridin-2-yl)methoxy]-1H-benzimidazol-2-yl}cyclohexanecarboxylic acid as the HCl salt]",920,–,–
"Cn1ccc(COc2ccc3nc(CC(C)(C)C(=O)O)n(Cc4ccc(Br)cc4)c3c2)n1 [Example 107, 3-{1-(4-Bromobenzyl)-6-[(1-methyl-1H-pyrazol-3-yl)methoxy]-1H-benzimidazol-2-yl}-2,2-dimethylpropanoic acid]",430,–,–
"CCC(CC)(Cc1nc2ccc(OCc3ccn(C)n3)cc2n1Cc1ccc(OC(F)(F)F)cc1)C(=O)O [Example 50, 2-Ethyl-2-({6-[(1-methyl-1H-pyrazol-3-yl)methoxy]-1-[4-(trifluoromethoxy)benzyl]-1H-benzimidazol-2-yl}methyl)butanoic acid]",~100,–,–
"Cc1cccc(COc2ccc3nc(CC(C)(C)C(=O)O)n(Cc4ccc(Br)cc4)c3c2)n1 [Example 108, 3-{1-(4-Bromobenzyl)-6-[(6-methylpyridin-2-yl)methoxy]-1H-benzimidazol-2-yl}-2,2-dimethylpropanoic acid]",2240,–,–
"Cc1cccc(COc2ccc3nc([C@@H]4[C@H](C(=O)O)C4(C)C)n(Cc4ccc(Br)cc4)c3c2)n1 (racemic) [Example 133, racemic cis-3-{1-(4-Bromobenzyl)-6-[(6-methylpyridin-2-yl)methoxy]-1H-benzimidazol-2-yl}-2,2-dimethylcyclopropanecarboxylic acid]",~1500,–,–
"Cc1cnc(COc2ccc3nc([C@H]4CCCC[C@H]4C(=O)O)n(Cc4ccc(N5CCC(F)CC5)cc4F)c3c2)c(F)c1 (stereo in doubt) [Example 174, (1R*,2S*)-2-{1-[2-Fluoro-4-(4-fluoropiperidin-1-yl)benzyl]-6-[(3-fluoro-5-methylpyridin-2-yl)methoxy]-1H-benzimidazol-2-yl}cyclohexanecarboxylic acid]",–,120,–
"Cn1ccc(COc2ccc3nc([C@@H]4[C@@H](C(=O)O)C4(C)C)n(Cc4ccc(Br)cc4)c3c2)n1 (racemic) [Example 117, racemic trans-3-{1-(4-Bromobenzyl)-6-[(1-methyl-1H-pyrazol-3-yl)methoxy]-1H-benzimidazol-2-yl}-2,2-dimethylcyclopropanecarboxylic acid as the TFA salt]",~1880,–,–
"Cc1ccc(COc2ccc3nc(C4[C@H](C(=O)O)C4(C)C)n(Cc4ccc(Br)cc4)c3c2)nc1 (mixture of isomers) [Example 111, racemic cis-3-{1-(4-Bromobenzyl)-6-[(5-methylpyridin-2-yl)methoxy]-1H-benzimidazol-2-yl}-2,2-dimethylcyclopropanecarboxylic acid as the TFA salt]",–,800,–
"CCC(CC)(Cc1nc2ccc(OCc3ccn(C)n3)cc2n1Cc1ccc(OC(F)(F)F)c(F)c1)C(=O)O [Example 57, 2-Ethyl-2-({1-[3-fluoro-4-(trifluoromethoxy)benzyl]-6-[(1-methyl-1H-pyrazol-3-yl)methoxy]-1H-benzimidazol-2-yl}methyl)butanoic acid]",–,~8000,–
"Cn1ccc(COc2ccc3nc(C4CCCC[C@@H]4C(=O)O)n(Cc4ccc(OC(F)(F)F)cc4)c3c2)n1 (single isomer, unassigned) [Example 45, (1R*,2S*)-2-{6-[(1-Methyl-1H-pyrazol-3-yl)methoxy]-1-[4-(trifluoromethoxy)benzyl]-1H-benzimidazol-2-yl}cyclohexanecarboxylic acid]",–,–,IC50 [1]: > 10000 nM
"CCC(CC)(Cc1nc2ccc(OCc3ccc(C)cn3)cc2n1Cc1ccc(C#N)cc1)C(=O)O [Example 19, 2-({1-(4-Cyanobenzyl)-6-[(5-methylpyridin-2-yl)methoxy]-1H-benzimidazol-2-yl}methyl)-2-ethylbutanoic acid as the TFA salt]",~750,–,–
"Cn1ccc(COc2ccc3nc(C4CCCC[C@H]4C(=O)O)n(Cc4ccc(Br)cc4)c3c2)n1 (mixture of isomers) [Example 40, racemic cis-2-{1-(4-Bromobenzyl)-6-[(1-methyl-1H-pyrazol-3-yl)methoxy]-1H-benzimidazol-2-yl}cyclohexanecarboxylic acid as the TFA salt]",–,–,IC50 ([1]; TFA salt): 470 nM
"CCC(CC)(Cc1nc2ccc(OCc3ncc(C)cc3F)cc2n1Cc1ccc(C#N)cc1)C(=O)O [Example 135, 2-({1-(4-Cyanobenzyl)-6-[(3-fluoro-5-methylpyridin-2-yl)methoxy]-1H-benzimidazol-2-yl}methyl)-2-ethylbutanoic acid]",–,1140,–
